Data published in patent publication US20250082654A1, “AZD3355 (LESOGABERAN) FOR TREATMENT AND PREVENTION OF NONALCOHOLIC STEATOHEPATITIS (NASH), LIVER FIBROSIS, AND OTHER LIVER CONDITIONS” (Icahn School of Medicine at Mount Sinai, priority 2018, published 2025).

Columns and labels:
human liver slices = experiment: Liver slice assay, histopathology and H&E staining; format: cell-based; details: 24 hours
Description: Ten human liver pieces were collected from the Mount Sinai biorepository. The samples were prepared by coring the liver with 8 mm cylindrical coring tools. The liver cores were kept in ice cold WE medium, with GlutaMAX supplemental. A liver core was then mounted on a specimen plate with cyanoacrylate adhesive. Liver slices (approximately 200 μm in thickness) were placed in ice cold Krebs-Henesleit buffer in the presence of carbogen gas. There was then a 1 hour pre-incubation in WE GlutaMAX media with gentamicin in 95% O2 and 5% CO2 at 37° C. in a humidified rocker chamber to restore ATP levels.
The liver slices were then cultured in WE GlutaMAX media with gentamicin in 95% O2 and 5% CO2 at 37° C. in a humidified rocker chamber with slow 70 rpm rocking in the presence of AZD3355 in the amounts of 250 nM, 500 nM, 1000 nM, or 2000 nM, or sorafenib at 1000 nM., or control vehicle (saline water).
After 24 hours, the tissue slices were harvested for either RNA isolation and quantitative PCR for measurements of Col1α1, TNFα, and IL-6 expression, or for histopathology and hematoxylin and eosin (H&E) staining as described in Example 3.

phHSCs = experiment: Fibrogenic protein expression by western blot and densitometry from cell lysate; format: cell-based, human; details: 48 or 72 hours
Description: (§1) Western blot and RT-qPCR experiments were run in parallel. 150,000 LX-2 cells or 200,000 phHSCs per well were plated on a 6-well plate dish. Cells were starved overnight in DMEM supplemented with 0.1% BSA (without antibiotic). Cells were then incubated with either AZD3355 or sorafenib at the indicated concentration and duration. Cells were harvested and lysed using RIPA buffer (50 mM Tris-HC1 pH8.0, 150 mM NaCl, 1% IGEPAL, 0.5% sodium deoxycholate and 0.1% SDS) along with Pierce Protease Inhibitor Mini Tablets, EDTA-Free (ThermoScientific, IL). Total protein was measured by Bradford colorimetric assay using Protein Assay Dye Reagent Concentrate (Bio-Rad, CA). […] After hybridized with HRP conjugated secondary antibody (either Goat anti-rabbit HRP (Jackson ImmunoResearch Laboratories, PA) or anti-mouse IgG-HRP (Cell Signaling Technology, MA) the membrane was treated with Immobilon Western Chemiluminescent HRP substrate (Millipore, MA) and the signals were captured with Amersham Imager 6000 (GE Healthcare, PA). 210 kD of Col1α1, 72 kD of MMP2 and 42 kD of α-SMA bands were recognized by respective antibody. 37 kD band of GAPDH was probed as loading control. For densitometric measurement of the protein bands, images were exported and analyzed using ImageJ 1.50 f software and bands were normalized to the loading control, GAPDH.

LX-2 cells [1] = experiment: as above; format: cell-based, human; details: LX2 cells, 48 or 72 hours, 30 nM or 100 nM AZD3355 or sorafenib
Description: as §1

LX-2 cells [2] = experiment: Fibrogenic gene expression by RT-qPCR; format: cell-based, human; details: 48 and 72 hours
Description: The following fibrogenic gene expressions were quantified by RT-qPCR: • 1. Collagen1α1 (Col1α1); • 2. Alpha Smooth Muscle Actin (αSMA); • 3. Beta PDGF receptor (β-PDGFR); • 4. Transforming growth factor-β receptor1 (TGFβ-R1); • 5. Tissue inhibitor of metalloproteinase—1 (TIMP1); • 6. Tissue inhibitor of metalloproteinase—2 (TIMP2); and • 7. Matrix Metalloproteinase 2 (MMP2).
The kinase inhibitor sorafenib (7.5 μM concentration) was used as positive control and run in parallel. 150,000 LX-2 cells or 200,000 phHSCs per well were plated on 6-well plate dish. Cells were starved overnight in DMEM supplemented with 0.1% BSA (without antibiotic). Cells were then incubated with either AZD3355 or sorafenib at the indicated concentration and duration. Cells were harvested and total RNA was extracted using RNeasy Mini Kit (Qiagen, CA). 0.5 μg of total RNA was used for reverse transcription with ‘RNA to cDNA EcoDry Premix (Double Primed) Kit’ (Clontech, CA). Expression of fibrogenic genes were measured by qPCR using custom designed primers (Sigma-Aldrich, MO) and iQ SYBR Green Supermix (Bio-Rad, CA) on a LightCycler 480 II (Roche Diagnostics Corporation, IN) instrument. Glyceraldehyde-3-phosphate dehydrogenase (GAPDH), […] (RPII), α-tubulin and β-actin genes were tested to determine the best fit for housekeeping gene of the study. […]

[3] = tested on: carbon tetrachloride-induced liver injury; details: in vivo; cited from earlier work
NASH model mice = experiment: NASH mouse model, histopathological scoring of liver sections; format: in vivo; details: 30 mg/kg daily; for Hepatocyte ballooning ± SE: score 0-2; for Portal inflammation ± SE / Lobular Inflammation ± SE / Steatosis ± SE: score 0-3; for Fibrosis Stage ± SE: score 0-4; for NAFLD activity score (NAS) ± SE: score 0-8
Description: Four separate groups of mice were given either 0.5% methylcellulose (as Vehicle) or AZD3355 at 10 mg/kg (low dose) body weight of mice or 30 mg/kg (high dose) body weight of mice by twice daily (BID (5 days/week)) and OCA at 30 mg/kg body weight of mice by daily (QD (5 days/week)) through oral route for up to next 12 weeks (week 13 to week 24). Them last group of mice were not given any drug or vehicle treatment, as No Tx—24 weeks and maintained in parallel with treatment/vehicle groups. Usually all doses were given at early morning and the second daily dose of AZD3355 at evening (10 hours of intervals). All animals were closely monitored the health conditions and behavior.
A piece of tissue from large liver lobe was fixed in 10% Formalin Buffered (Astral Diagnostics Incorporated NJ) embedded in paraffin and microtome sectioning were performed. Slides containing tissue sections were baked at 60° C. for 1 hour and re-hydrated through xylene followed by graded ethanol (100%, 95%, 85% and 70%) into distilled water and processed in either Picrosirius red/Fast green or hematoxylin and eosin staining.
A total of 2 sections/animal were stained with H&E staining performed by standard protocol.
Steatosis, hepatocyte ballooning, lobular inflammation, portal inflammation and fibrosis of picroserious red/fast green and H&E stained liver section were scored according to the NASH Clinical Research Network (NASH CRN) scoring system in a blinded fashion by an expert hepato-pathologist in Icahn School of Medicine at Mount Sinai. NAFLD activity score (NAS) was calculated according to Brunt criteria and range from 0-8. NAS was calculated by the sum of scores of steatosis (0-3), hepatocyte ballooning (0-2) and lobular inflammation (0-3). NAS score of >5.0 strongly correlated with “definite-NASH” whereas <3 correlated with “not-NASH”. Fibrosis (0-4) or portal inflammation (0-3) scores were assessed separately and not included in NAS.

For `CNC(=O)c1cc(Oc2ccc(NC(=O)Nc3ccc(Cl)c(C(F)(F)F)c3)cc2)ccn1` [Sorafenib, sorafenib], the “liver cells viability (H&E)” value (human liver slices) was “did not change”, the “protein expression of Col1α1 (western blot)” value (phHSCs) was “no change” and the “protein expression of Col1α1 (western blot)” value (LX-2 cells [1]) was “no change”. The “gene expression of pro-fibrogenic genes Col1α1, αSMA, βPDGF-R, TGFβ-R1, TIMP1, TIMP2, MMP2” value (LX-2 cells [2]) was “downregulated”.
In the case of `NCC(CC(=O)O)c1ccc(Cl)cc1` (stereo not shown) [baclofen], the “liver injury due to carbon tetrachloride” value [3] is given as “attenuates injury”.
In the case of `CC[C@H]1[C@@H](O)[C@@H]2[C@H](CC[C@]3(C)[C@@H]([C@H](C)CCC(=O)O)CC[C@@H]23)[C@@]2(C)CC[C@@H](O)C[C@@H]12` [OCA, Obeticholic acid, reference compound], the “Hepatocyte ballooning ± SE” value (NASH model mice; ♀ Mice, vehicle 1.2 ± 0.1) is reported as 1.1 ± 0.2, the “Portal inflammation ± SE” value (NASH model mice; ♀ Mice, vehicle 1.6 ± 0.1) is reported as 1.0 ± 0.2 and the “Lobular Inflammation ± SE” value (NASH model mice; ♀ Mice, vehicle 2.3 ± 0.1) is reported as 1.6 ± 0.1. For the same molecule, the “Steatosis ± SE” value (NASH model mice; ♀ Mice, vehicle 2.5 ± 0.1) was 2.0 ± 0.2, the “Fibrosis Stage ± SE” value (NASH model mice; ♀ Mice, vehicle 3.0 ± 0.1) was 2.2 ± 0.1 and the “NAFLD activity score (NAS) ± SE” value (NASH model mice; ♀ Mice, vehicle 6.1 ± 0.4) was 4.7 ± 0.6. The “Steatohepatitis Grade ± SE” value (NASH model mice; ♀ Mice, vehicle 1.8 ± 0.2) was 1.4 ± 0.3, the “Hepatocyte ballooning ± SE” value (NASH model mice; ♂ Mice, vehicle 1.7 ± 0.1) was 1.0 ± 0.2 and the “Portal inflammation ± SE” value (NASH model mice; ♂ Mice, vehicle 2.0 ± 0.1) was 1.3 ± 0.2. For the same molecule, the “Steatosis ± SE” value (NASH model mice; ♂ Mice, vehicle 2.7 ± 0.1) was 2.0 ± 0.2, the “Lobular Inflammation ± SE” value (NASH model mice; ♂ Mice, vehicle 2.8 ± 0.1) was 1.9 ± 0.2 and the “Fibrosis Stage ± SE” value (NASH model mice; ♂ Mice, vehicle 3.3 ± 0.1) was 2.9 ± 0.1. For the same molecule, the “NAFLD activity score (NAS) ± SE” value (NASH model mice; ♂ Mice, vehicle 7.2 ± 0.3) was 5.0 ± 0.6 and the “Steatohepatitis Grade ± SE” value (NASH model mice; ♂ Mice, vehicle 2.6 ± 0.2) was 1.5 ± 0.3.
